Results on 21 compounds are retold here after ChEMBL document CHEMBL1681668, “Discovery of INCB10820/PF-4178903, a potent, selective, and orally bioavailable dual CCR2 and CCR5 antagonist” (Bioorg Med Chem Lett, 2011).

Series [1] has as its target C-C chemokine receptor type 5 (Homo sapiens, UniProt P51681). The series can be described thus: Displacement of labeled MIP-1beta from human CCR5 receptor.
The nature of series [2]: Half life in human liver microsomes. It counts as ADME, Microsome. On the technique in general: Liver microsomes are vesicles of endoplasmic reticulum, rich in cytochrome P450 enzymes.
Series [3] in a line: Clearance in rat at 5 mg/kg, iv and 10 mg/kg, po. The conditions noted are these: in vivo. It counts as ADME, organism-based.
Series [4] can be described thus: Volume of distribution at steady state in rat at 5 mg/kg, iv and 10 mg/kg, po. It counts as ADME, organism-based. The conditions noted are these: in vivo, read-out: Vdss.
Series [5] is described as follows: Half life in rat at 5 mg/kg, iv. It counts as ADME, organism-based. Details: dose 5 mg/kg, route intravenous. The conditions noted are these: in vivo.
Series [6] can be described thus: AUC in rat at 10 mg/kg, po. It counts as ADME, organism-based. Details: dose 10 mg/kg, route oral. The conditions noted are these: plasma.
The nature of series [7]: Oral bioavailability in rat at 10 mg/kg. The conditions noted are these: in vivo. The series is classed as ADME, organism-based.
Series [8] can be described thus: Clearance in cynomolgus monkey at […], iv and 10 mg/kg, po. The series is classed as ADME, organism-based, Macaca fascicularis. The conditions noted are these: in vivo.
The nature of series [9]: Volume of distribution at steady state in cynomolgus monkey at […], iv and 10 mg/kg, po. The series is classed as ADME, organism-based, Macaca fascicularis. The conditions noted are these: in vivo, read-out: Vdss.
Series [10] is described as follows: Half life in cynomolgus monkey at […], iv. It counts as ADME, organism-based, Macaca fascicularis. The arrangement: dose 2.5 mg/kg, route intravenous. The conditions noted are these: in vivo.
A short description of series [11]: AUC in cynomolgus monkey at 10 mg/kg, po. The series is classed as ADME, organism-based, Macaca fascicularis. Details: dose 10 mg/kg, route oral. The conditions noted are these: plasma.
Series [12] can be described thus: Oral bioavailability in cynomolgus monkey at 10 mg/kg. It counts as ADME, organism-based, Macaca fascicularis. The conditions noted are these: in vivo.
The target of series [13] is C-C chemokine receptor type 2 (Homo sapiens) (UniProt P41597). The series can be described thus: Displacement of [125I]MCP1 from human CCR2 at 1000 nM after 30 mins by gamma counting. Background: Loss of bound radioactivity is the signal in a displacement assay; it reports binding, not function.
Sequence of C-C chemokine receptor type 2 (Homo sapiens) (P41597 whole entry, looked up): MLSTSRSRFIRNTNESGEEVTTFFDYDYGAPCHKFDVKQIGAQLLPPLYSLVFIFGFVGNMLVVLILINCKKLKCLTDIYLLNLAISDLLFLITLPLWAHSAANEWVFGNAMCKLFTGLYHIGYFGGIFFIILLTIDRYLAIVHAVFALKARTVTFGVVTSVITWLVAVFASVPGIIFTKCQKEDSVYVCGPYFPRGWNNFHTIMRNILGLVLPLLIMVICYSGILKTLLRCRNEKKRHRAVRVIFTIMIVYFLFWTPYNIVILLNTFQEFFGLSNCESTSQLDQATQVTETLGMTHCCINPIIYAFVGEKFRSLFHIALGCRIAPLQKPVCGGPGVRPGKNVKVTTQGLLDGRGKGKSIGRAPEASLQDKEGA

Usually IC50 stands for the concentration that gives 50% inhibition. One may read the half-life as the time in which the quantity being followed falls by half. As a reminder, the AUC is concentration integrated over time. For orientation: bioavailability means the share of a dose that reaches the circulation, judged against a reference dose that is usually intravenous. Broadly, the inhibition is the change of the read-out against control, counted positive when it falls.

SMILES strings stand for the structures. Bounds are passed on as bounds.

Sequence of C-C chemokine receptor type 5 (P51681 whole entry): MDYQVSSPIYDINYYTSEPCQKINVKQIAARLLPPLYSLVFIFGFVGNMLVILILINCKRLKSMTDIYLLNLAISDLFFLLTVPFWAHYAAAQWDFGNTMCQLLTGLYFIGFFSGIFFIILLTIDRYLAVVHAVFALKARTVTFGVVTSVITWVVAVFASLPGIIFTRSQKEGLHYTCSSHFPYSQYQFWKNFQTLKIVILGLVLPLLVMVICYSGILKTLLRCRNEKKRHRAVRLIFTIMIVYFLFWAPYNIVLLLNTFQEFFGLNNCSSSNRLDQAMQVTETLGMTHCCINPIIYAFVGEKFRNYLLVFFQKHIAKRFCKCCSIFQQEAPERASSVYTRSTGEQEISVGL

As to `CC[C@H]1COCC[C@H]1N[C@@H]1CC[C@@](C(=O)N2CCN(c3cccc(C(F)(F)F)c3)CC2)(C(C)C)C1`, the 50% inhibitory concentration (IC50) in [1] turned out to be 312 nM. Same read-out and setting: next, `CC[C@H]1COCC[C@@H]1N[C@@H]1CC[C@@](C(=O)N2CCN(c3cccc(C(F)(F)F)c3)CC2)(C(C)C)C1`: 546 nM; `CO[C@@H]1COCC[C@@H]1N[C@@H]1CC[C@@](C(=O)N2CCN(c3cccc(C(F)(F)F)n3)CC2)(C(C)C)C1`: 26.5 nM.

Regarding `CO[C@@H]1COCC[C@@H]1N[C@@H]1CC[C@@](C(=O)N2CCN(c3cc(C(F)(F)F)ccn3)CC2)(C(C)C)C1`, the values for the half-life in [2], in series [5] and in series [10] were 1.55 h, 5 h and 3 h, respectively. Further, the values for the clearance in series [3] and in series [8] were 63.3 mL/min/kg and 36.7 mL/min/kg, respectively. Moreover, the Vd worked out at 17 L/kg in series [4] and 6.2 L/kg in series [9]. Also, the AUC is 3 µM·h in series [6] and 5.3 µM·h in series [11]. Also, the bioavailability in series [7] stood at 84%; in series [12], 57%. `CC(C)[C@]1(C(=O)N2CCN(c3cccc(C(F)(F)F)c3)CC2)CC[C@@H](N[C@@H]2CCOC[C@H]2C)C1`: the IC50 in series [1] was greater than 1000 nM. On the same count and under the same terms, next, `COC[C@H]1COCC[C@H]1N[C@@H]1CC[C@@](C(=O)N2CCN(c3cccc(C(F)(F)F)c3)CC2)(C(C)C)C1`: 572 nM; `CO[C@H]1COCC[C@H]1N[C@@H]1CC[C@@](C(=O)N2CCN(c3cccc(C(F)(F)F)c3)CC2)(C(C)C)C1`: 204 nM. With `CC(C)[C@]1(C(=O)N2CCN(c3cccc(C(F)(F)F)c3)CC2)CC[C@@H](N[C@H]2CCOC[C@@H]2C)C1`, the IC50 in [1] was found to be 370 nM.

With `CO[C@@H]1COCC[C@@H]1N[C@@H]1CC[C@@](C(=O)N2CCN(c3cccc(C(F)(F)F)c3)CC2)(C(C)C)C1`, the IC50 in series [1] was found to be 23 nM. `CC(C)[C@]1(C(=O)N2CCN(c3ccccc3C(F)(F)F)CC2)CC[C@@H](NC2CCOCC2)C1` returned an inhibition in [13] of 19%. On to `CCO[C@H]1COCC[C@H]1N[C@@H]1CC[C@@](C(=O)N2CCN(c3cccc(C(F)(F)F)c3)CC2)(C(C)C)C1`, for which the IC50 in series [1] came out at 206 nM.

For `CC(C)[C@]1(C(=O)N2CCN(c3cccc(C(F)(F)F)c3)CC2)CC[C@@H](N[C@@H]2CCOC[C@@H]2C)C1`, the IC50 in series [1] is 108 nM.

As for `CC[C@@H]1COCC[C@H]1N[C@@H]1CC[C@@](C(=O)N2CCN(c3cccc(C(F)(F)F)c3)CC2)(C(C)C)C1`, in series [1], the IC50 was 1000 nM. In the case of `CC(C)[C@]1(C(=O)N2CCC(c3ccccc3)CC2)CC[C@@H](NC2CCOCC2)C1`, the inhibition in series [13] turned out to be 0%. Take `CC(C)[C@]1(C(=O)N2CCN(c3cccc(C(F)(F)F)c3)CC2)CC[C@@H](NC2CCOCC2)C1`: in series [1], the IC50 was found to be 283 nM. Consider `CCO[C@@H]1COCC[C@@H]1N[C@@H]1CC[C@@](C(=O)N2CCN(c3cccc(C(F)(F)F)c3)CC2)(C(C)C)C1`, for which, in [1], the IC50 came out at 22.5 nM. Consider `CC[C@@H]1COCC[C@@H]1N[C@@H]1CC[C@@](C(=O)N2CCN(c3cccc(C(F)(F)F)c3)CC2)(C(C)C)C1`, for which the concentration for half-maximal inhibition (IC50) in series [1] is 18 nM. In [1], `COC[C@@H]1COCC[C@@H]1N[C@@H]1CC[C@@](C(=O)N2CCN(c3cccc(C(F)(F)F)c3)CC2)(C(C)C)C1` yielded an IC50 of 201 nM. Still for that read-out and setting: next, `CC(C)[C@]1(C(=O)N2CCN(c3cccc(C(F)(F)F)c3)CC2)CC[C@@H](N[C@H]2CCOC[C@H]2C)C1`: 77 nM; `CO[C@@H]1COCC[C@@H]1N[C@@H]1CC[C@](CC(F)(F)F)(C(=O)N2CCN(c3cc(C(F)(F)F)ccn3)CC2)C1`: 8.4 nM. The compound `CC(C)[C@]1(C(=O)N2CCN(c3ccc(C(F)(F)F)cc3)CC2)CC[C@@H](NC2CCOCC2)C1` returned an inhibition in series [13] of 40%.
